The record followed here is ChEMBL document CHEMBL4622979, “Non-rigid Diarylmethyl Analogs of Baloxavir as Cap-Dependent Endonuclease Inhibitors of Influenza Viruses” (J Med Chem, 2020).

Data set [1] in a line: AUCinfinity in CD1 mouse heart assessed as baloxavir acid level at 15 mg/kg, po administered as single dose measured up to 24 hrs by LC-MS/MS analysis. It is filed as ADME, organism-based. The arrangement: dose 15 mg/kg, time infinity, route oral. To be noted: in vivo.
A short description of data set [2]: AUClast in CD1 mouse muscle assessed as baloxavir acid level at 15 mg/kg, po administered as single dose measured up to 24 hrs by LC-MS/MS analysis. The format is ADME, organism-based, Muscle tissue. To be noted: in vivo.
A short description of data set [3]: AUCinfinity in CD1 mouse brain assessed as baloxavir acid level at 15 mg/kg, po administered as single dose measured up to 24 hrs by LC-MS/MS analysis. It is filed as ADME, organism-based. To be noted: in vivo. On the set-up: dose 15 mg/kg, time infinity, route oral.
A short description of data set [4]: Tmax in CD1 mouse heart assessed as baloxavir acid level at 15 mg/kg, po administered as single dose measured up to 24 hrs by LC-MS/MS analysis. Conditions: in vivo. It is filed as ADME, organism-based.
Data set [5] in a line: MRTlast in CD1 mouse heart assessed as baloxavir acid level at 15 mg/kg, po administered as single dose measured up to 24 hrs by LC-MS/MS analysis. The format is ADME, organism-based. To be noted: in vivo.
A short description of data set [6]: MRTlast in CD1 mouse liver assessed as baloxavir acid level at 15 mg/kg, po administered as single dose measured up to 24 hrs by LC-MS/MS analysis. The format is ADME, organism-based. To be noted: in vivo.
Data set [7] can be described thus: Cmax in CD1 mouse heart assessed as baloxavir acid level at 15 mg/kg, po administered as single dose measured up to 24 hrs by LC-MS/MS analysis. The format is ADME, organism-based. On the set-up: dose 15 mg/kg, route oral. Conditions: in vivo.
A short description of data set [8]: AUClast in CD1 mouse blood assessed as baloxavir acid level at 15 mg/kg, po administered as single dose measured up to 24 hrs by LC-MS/MS analysis. It is filed as ADME, organism-based. To be noted: in vivo.
A short description of data set [9]: AUCinfinity in CD1 mouse kidney assessed as baloxavir acid level at 15 mg/kg, po administered as single dose measured up to 24 hrs by LC-MS/MS analysis. The arrangement: dose 15 mg/kg, time infinity, route oral. It is filed as ADME, organism-based. Conditions: in vivo.
A short description of data set [10]: Ratio of AUClast in CD1 mouse spleen to plasma assessed as baloxavir acid level at 15 mg/kg, po administered as single dose measured up to 24 hrs by LC-MS/MS analysis. It is filed as ADME, organism-based. Conditions: other tissue.
The nature of data set [11]: AUClast in CD1 mouse heart assessed as baloxavir acid level at 15 mg/kg, po administered as single dose measured up to 24 hrs by LC-MS/MS analysis. The format is ADME, organism-based. To be noted: in vivo.
The nature of data set [12]: Stability in mouse plasma assessed as parent compound remaining at 1 uM measured after 4 hrs by LC-MS/MS analysis. It is filed as ADME, cell-free. Conditions: read-out: Stability.
Data set [13] can be described thus: Ratio of AUClast in CD1 mouse small intestine to plasma assessed as (12aR)-12-(Diphenylmethyl)-7-hydroxy-3,4,12,12a-tetrahydro-1H-[1,4]oxazino[3,4-c]pyrido[2,1-f ][1,2,4]triazine-6,8-dione level at 15 mg/kg, po administered as single dose measured up to 24 hrs by LC-MS/MS analysis. It is filed as ADME, organism-based. To be noted: other tissue.
The nature of data set [14]: AUCinfinity in CD1 mouse heart assessed as (12aR)-12-(Diphenylmethyl)-7-hydroxy-3,4,12,12a-tetrahydro-1H-[1,4]oxazino[3,4-c]pyrido[2,1-f ][1,2,4]triazine-6,8-dione level at 15 mg/kg, po administered as single dose measured up to 24 hrs by LC-MS/MS analysis. It is filed as ADME, organism-based. On the set-up: dose 15 mg/kg, time infinity, route oral. Conditions: in vivo.

Data set [15] can be described thus: AUClast in CD1 mouse trachea assessed as (12aR)-12-(Diphenylmethyl)-7-hydroxy-3,4,12,12a-tetrahydro-1H-[1,4]oxazino[3,4-c]pyrido[2,1-f ][1,2,4]triazine-6,8-dione level at 15 mg/kg, po administered as single dose measured up to 24 hrs by LC-MS/MS analysis. It is filed as ADME, organism-based. Conditions: in vivo.
Data set [16] is described as follows: Elimination rate constant in CD1 mouse blood assessed as (12aR)-12-(Diphenylmethyl)-7-hydroxy-3,4,12,12a-tetrahydro-1H-[1,4]oxazino[3,4-c]pyrido[2,1-f ][1,2,4]triazine-6,8-dione level at 15 mg/kg, po administered as single dose measured up to 24 hrs by LC-MS/MS analysis. The format is ADME, organism-based. Conditions: in vivo.
Data set [17] can be described thus: Cmax in CD1 mouse brain assessed as (12aR)-12-(Diphenylmethyl)-7-hydroxy-3,4,12,12a-tetrahydro-1H-[1,4]oxazino[3,4-c]pyrido[2,1-f ][1,2,4]triazine-6,8-dione level at 15 mg/kg, po administered as single dose measured up to 24 hrs by LC-MS/MS analysis. The format is ADME, organism-based. The arrangement: dose 15 mg/kg, route oral. Conditions: in vivo.
A short description of data set [18]: Tmax in CD1 mouse trachea assessed as (12aR)-12-(Diphenylmethyl)-7-hydroxy-3,4,12,12a-tetrahydro-1H-[1,4]oxazino[3,4-c]pyrido[2,1-f ][1,2,4]triazine-6,8-dione level at 15 mg/kg, po administered as single dose measured up to 24 hrs by LC-MS/MS analysis. The format is ADME, organism-based. To be noted: in vivo.
The nature of data set [19]: AUCinfinity in CD1 mouse lung assessed as (12aR)-12-(Diphenylmethyl)-7-hydroxy-3,4,12,12a-tetrahydro-1H-[1,4]oxazino[3,4-c]pyrido[2,1-f ][1,2,4]triazine-6,8-dione level at 15 mg/kg, po administered as single dose measured up to 24 hrs by LC-MS/MS analysis. The format is ADME, organism-based. On the set-up: dose 15 mg/kg, route oral, time infinity. To be noted: in vivo.

Data set [20] is described as follows: MRTlast in CD1 mouse spleen assessed as (12aR)-12-(Diphenylmethyl)-7-hydroxy-3,4,12,12a-tetrahydro-1H-[1,4]oxazino[3,4-c]pyrido[2,1-f ][1,2,4]triazine-6,8-dione level at 15 mg/kg, po administered as single dose measured up to 24 hrs by LC-MS/MS analysis. To be noted: in vivo. It is filed as ADME, organism-based.
Data set [21] is described as follows: Tmax in CD1 mouse brain assessed as (12aR)-12-(Diphenylmethyl)-7-hydroxy-3,4,12,12a-tetrahydro-1H-[1,4]oxazino[3,4-c]pyrido[2,1-f ][1,2,4]triazine-6,8-dione level at 15 mg/kg, po administered as single dose measured up to 24 hrs by LC-MS/MS analysis. Conditions: in vivo. It is filed as ADME, organism-based.
Data set [22] can be described thus: Cmax in CD1 mouse lung assessed as (12aR)-12-(Diphenylmethyl)-7-hydroxy-3,4,12,12a-tetrahydro-1H-[1,4]oxazino[3,4-c]pyrido[2,1-f ][1,2,4]triazine-6,8-dione level at 15 mg/kg, po administered as single dose measured up to 24 hrs by LC-MS/MS analysis. The format is ADME, organism-based. On the set-up: dose 15 mg/kg, route oral. Conditions: in vivo.
Data set [23] in a line: Elimination rate constant in CD1 mouse brain assessed as (12aR)-12-(Diphenylmethyl)-7-hydroxy-3,4,12,12a-tetrahydro-1H-[1,4]oxazino[3,4-c]pyrido[2,1-f ][1,2,4]triazine-6,8-dione level at 15 mg/kg, po administered as single dose measured up to 24 hrs by LC-MS/MS analysis. To be noted: in vivo. It is filed as ADME, organism-based.
Data set [24] can be described thus: AUClast in CD1 mouse spleen assessed as (12aR)-12-(Diphenylmethyl)-7-hydroxy-3,4,12,12a-tetrahydro-1H-[1,4]oxazino[3,4-c]pyrido[2,1-f ][1,2,4]triazine-6,8-dione level at 15 mg/kg, po administered as single dose measured up to 24 hrs by LC-MS/MS analysis. It is filed as ADME, organism-based. Conditions: in vivo.
A short description of data set [25]: Ratio of AUClast in CD1 mouse spleen to plasma assessed as (12aR)-12-(Diphenylmethyl)-7-hydroxy-3,4,12,12a-tetrahydro-1H-[1,4]oxazino[3,4-c]pyrido[2,1-f ][1,2,4]triazine-6,8-dione level at 15 mg/kg, po administered as single dose measured up to 24 hrs by LC-MS/MS analysis. The format is ADME, organism-based. To be noted: other tissue.

Turning to `COC(=O)OCOc1c2n(ccc1=O)N([C@@H]1c3ccccc3SCc3c1ccc(F)c3F)[C@@H]1COCCN1C2=O` [BALOXAVIR MARBOXIL], the figures for the AUC in data set [1], in data set [3] and in data set [9] were 9025 ng·h/g, 411 ng·h/g and 21287 ng·h/g, respectively. The AUClast is 4716 ng·h/g in data set [2], 1381 ng·h/g in [8] and 8959 ng·h/g in data set [11]. Further, the Tmax (commonly the time from dosing to the highest level) in data set [4] turned out to be 2 h. Further, the figures for the MRTlast in data set [5] and in data set [6] were 4.84 h and 2.92 h, respectively. Also, the Cmax (commonly the peak of the concentration-time curve) in data set [7] turned out to be 1188 ng/g. Further, the “Ratio AUC” value in data set [10] came out at 7.99.
For the compound `COC(=O)OCOc1c2n(ccc1=O)N(C(c1ccccc1)c1ccccc1)[C@@H]1COCCN1C2=O`, the remaining at 4 h, 1 µM in [12] worked out at 0%. For the same compound, the “Ratio AUC” value in data set [13] is on record as 13.3; in data set [25], 1.38. For the same compound, the AUC in data set [14] amounted to 11444 ng·h/g; in data set [19], 8547 ng·h/g. The values for the AUClast in [15] and in [24] were 10575 ng·h/g and 4545 ng·h/g, respectively. In addition, the Kel was found to be 0.4 h⁻¹ in [16] and 0.08 h⁻¹ in data set [23]. Further, the Cmax in data set [17] came to 98 ng/g; in data set [22] it was 2847 ng/g. The time of peak concentration (Tmax) in data set [18] and in data set [21] was 0.5 h each time. Also, the MRTlast in [20] amounted to 1.89 h.
